In patent US10611730B2, “Benzimidazolone and benzothiazolone compounds and their use as AMPA receptor modulators” (Janssen Pharmaceutica NV, priority 2015, dated 2020):

Each compound was assayed against TARP γ8 dependent AMPA receptor (GluA1o-g8 fusion channel) (Homo sapiens (Human), UniProt P42261+Q8WXS5) (assay: Calcium flux assay (FLIPR), HEK293 cells expressing GRIA1o-CACNG8 fusion). Settings: inhibition of calcium flux after 15 μM glutamate, read-out: GluR1-γ8 pIC50 (converted).
Format: cell-based
In short: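 Stable HEK293 clone expressing GluA1o-γ8 fusion (1:1 stoichiometry), loaded with Calcium-5/6 dye plus test compound; glutamate-evoked fluorescence normalized to control wells. Concentration-response fitted to four-parameter logistic, midpoint taken as inhibitory potency.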

Sequence of TARP γ8 dependent AMPA receptor (GluA1o-g8 fusion channel) (P42261 other isoform, or with tags, fused parts or gaps): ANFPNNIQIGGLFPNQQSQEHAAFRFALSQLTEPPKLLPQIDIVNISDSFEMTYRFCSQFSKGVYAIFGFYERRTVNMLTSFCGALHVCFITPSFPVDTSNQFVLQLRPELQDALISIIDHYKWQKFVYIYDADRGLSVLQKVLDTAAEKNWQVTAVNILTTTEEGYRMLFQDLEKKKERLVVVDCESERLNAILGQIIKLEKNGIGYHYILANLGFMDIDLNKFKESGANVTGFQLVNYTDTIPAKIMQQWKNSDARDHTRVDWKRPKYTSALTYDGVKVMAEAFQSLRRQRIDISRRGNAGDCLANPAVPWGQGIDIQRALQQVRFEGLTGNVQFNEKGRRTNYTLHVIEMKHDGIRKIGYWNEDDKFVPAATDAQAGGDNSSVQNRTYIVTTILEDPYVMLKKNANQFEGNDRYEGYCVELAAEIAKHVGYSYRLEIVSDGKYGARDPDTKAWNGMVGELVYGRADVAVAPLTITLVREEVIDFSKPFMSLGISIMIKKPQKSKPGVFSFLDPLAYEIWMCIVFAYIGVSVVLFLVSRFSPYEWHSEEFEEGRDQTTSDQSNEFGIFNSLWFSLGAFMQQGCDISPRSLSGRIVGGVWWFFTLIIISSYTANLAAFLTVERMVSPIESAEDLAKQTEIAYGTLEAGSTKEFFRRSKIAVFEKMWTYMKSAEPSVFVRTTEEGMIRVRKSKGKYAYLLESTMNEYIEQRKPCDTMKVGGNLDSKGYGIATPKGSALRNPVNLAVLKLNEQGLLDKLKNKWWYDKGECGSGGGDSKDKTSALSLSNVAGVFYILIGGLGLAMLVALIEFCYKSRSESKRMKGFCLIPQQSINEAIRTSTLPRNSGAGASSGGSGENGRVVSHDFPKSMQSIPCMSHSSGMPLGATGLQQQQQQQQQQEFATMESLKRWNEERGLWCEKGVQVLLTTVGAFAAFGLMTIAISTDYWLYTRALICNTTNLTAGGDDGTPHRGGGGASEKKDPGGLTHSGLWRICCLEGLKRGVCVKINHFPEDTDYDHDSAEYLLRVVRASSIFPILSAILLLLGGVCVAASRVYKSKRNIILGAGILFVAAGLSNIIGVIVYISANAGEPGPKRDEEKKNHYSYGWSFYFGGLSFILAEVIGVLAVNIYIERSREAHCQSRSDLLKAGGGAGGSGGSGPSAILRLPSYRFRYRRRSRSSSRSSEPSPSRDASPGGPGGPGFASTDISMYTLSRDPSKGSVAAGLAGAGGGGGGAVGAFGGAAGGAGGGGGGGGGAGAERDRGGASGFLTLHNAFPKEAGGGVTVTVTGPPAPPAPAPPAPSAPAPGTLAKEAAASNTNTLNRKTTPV

| IC50 [µM] | Structure (SMILES) |
| --- | --- |
| 0.0158 | N#Cc1ccc(OC(F)(F)F)c(-c2ccc3[nH]c(=O)[nH]c3c2)c1Cl [Example 208, 2-Chloro-3-(2-oxo-1,3-dihydrobenzimidazol-5-yl)-4-(trifluoromethoxy)benzonitrile] |
| 0.0158 | N#Cc1ccc(Cl)c(-c2ccc3[nH]c(=O)[nH]c3c2)c1OC(F)(F)F [Example 209, 4-Chloro-3-(2-oxo-1,3-dihydrobenzimidazol-5-yl)-2-(trifluoromethoxy)benzonitrile] |
| 0.0631 | O=c1[nH]c2cc(F)c(-c3c(Cl)cccc3OC(F)(F)F)cc2s1 [Example 210, 6-[2-Chloro-6-(trifluoromethoxy)phenyl]-5-fluoro-3H-1,3-benzothiazol-2-one] |
| 0.0001 | Cc1cc(-c2c(Cl)cccc2OC(F)(F)F)cc2[nH]c(=O)[nH]c12 [Example 211, 6-(2-Chloro-6-(trifluoromethoxy)phenyl)-4-methyl-1H-benzo[d]imidazol-2(3H)-one] |
| 0.2 | Cn1cc(-c2cccc(-c3ccc4[nH]c(=O)sc4c3)c2Cl)cn1 [Example 212, 6-(2-Chloro-3-(1-methyl-1H-pyrazol-4-yl)phenyl)benzo[d]thiazol-2(3H)-one] |
| 2.51 | COC1CCN(c2cccc(-c3ccc4[nH]c(=O)sc4c3)c2Cl)CC1 [Example 213, 6-(2-Chloro-3-(4-methoxypiperidin-1-yl)phenyl)benzo[d]thiazol-2(3H)-one] |
| 0.00251 | O=c1[nH]c2cc(-c3c(Cl)cccc3OC(F)(F)F)cc(F)c2[nH]1 [Example 214, 6-(2-chloro-6-(trifluoromethoxy)phenyl)-4-fluoro-1,3-dihydro-2H-benzo[d]imidazol-2-one] |

The next lines start with the compound.

| Structure (SMILES) | IC50 [µM] |
| --- | --- |
| Cc1c(-c2ccc3[nH]c(=O)sc3c2)cccc1-c1nc(C2CC2)no1 [Example 202, 6-[3-(3-Cyclopropyl-1,2,4-oxadiazol-5-yl)-2-methyl-phenyl]-3H-1,3-benzothiazol-2-one] | 3.98 |
| Cc1noc(-c2cccc(-c3ccc4[nH]c(=O)[nH]c4c3)c2C)n1 [Example 203, 5-[2-Methyl-3-(3-methyl-1,2,4-oxadiazol-5-yl)phenyl]-1,3-dihydrobenzimidazol-2-one] | 0.0398 |
| Cc1noc(-c2cccc(-c3ccc4[nH]c(=O)sc4c3)c2C)n1 [Example 204, 6-[2-Methyl-3-(3-methyl-1,2,4-oxadiazol-5-yl)phenyl]-3H-1,3-benzothiazol-2-one] | 2.51 |
| Cc1c(-c2ccc3[nH]c(=O)[nH]c3c2)cccc1-c1nc(C(F)(F)F)no1 [Example 205, 5-[2-Methyl-3-[3-(trifluoromethyl)-1,2,4-oxadiazol-5-yl]phenyl]-1,3-dihydrobenzimidazol-2-one] | 0.0398 |
| Cc1c(-c2ccc3[nH]c(=O)[nH]c3c2)cccc1-c1ncon1 [Example 206, 5-[2-Methyl-3-(1,2,4-oxadiazol-3-yl)phenyl]-1,3-dihydrobenzimidazol-2-one] | 0.0316 |
| Cc1c(-c2ccc3[nH]c(=O)sc3c2)cccc1-c1ncon1 [Example 207, 6-[2-Methyl-3-(1,2,4-oxadiazol-3-yl)phenyl]-3H-1,3-benzothiazol-2-one] | 0.126 |
